Molecules are shown by their SMILES.

For 16 compounds, Ki results are on record in patent publication US10533010B2, “Substituted indole Mcl-1 inhibitors” (Vanderbilt University, priority 2014, dated 2020).

This assay addresses recombinant Mcl-1 (residues 172-327) (Homo sapiens (Human), UniProt Q07820). As to the kind of experiment: Fluorescence polarization anisotropy competition assay (FITC-Bak or FITC-Bim BH3 peptide) with Mcl-1. It is filed as binding. As to conditions: Table 2; Ki bins given in nM; FITC-Bak or FITC-Bim peptide competition; Ki converted from IC50; read-out: Ki for Inhibition of Mcl-1. A general note: Fluorescence polarisation rises when a labelled molecule tumbles more slowly, as on binding a larger partner.

Chain of recombinant Mcl-1 (residues 172-327) (Q07820 172-327): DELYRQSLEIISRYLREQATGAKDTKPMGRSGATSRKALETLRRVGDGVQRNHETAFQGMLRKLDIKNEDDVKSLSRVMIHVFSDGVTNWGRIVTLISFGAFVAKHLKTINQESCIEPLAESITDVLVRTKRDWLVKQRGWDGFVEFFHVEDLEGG

Turning to `Cc1cc(OCCCc2c3n(c4c(-c5c(C)nn(C)c5C)c(Cl)ccc24)CCCN(c2cc(F)cc(C(=O)O)c2)C3=O)cc(C)c1Cl` [I-223, 3-(8-chloro-11-(3-(4-chloro-3,5-dimethylphenoxy)propyl)-1-oxo-7-(1,3,5-trimethyl-1H-pyrazol-4-yl)-4,5-dihydro-1H-[1,4]diazepino[1,2-a]indol-2(3H)-yl)-5-fluorobenzoic acid], the Ki is < 50 nM.
With `Cc1cc(OCCCc2c3n(c4c(-c5c(C)nn(C)c5C)c(Cl)ccc24)CCCN(c2cc(CO)cc(C(=O)O)c2)C3=O)cc(C)c1Cl` [I-224, 3-(8-chloro-11-(3-(4-chloro-3,5-dimethylphenoxy)propyl)-1-oxo-7-(1,3,5-trimethyl-1H-pyrazol-4-yl)-4,5-dihydro-1H-[1,4]diazepino[1,2-a]indol-2(3H)-yl)-5-(hydroxymethyl)benzoic acid] the figure was < 50 nM.
With `Cc1cc(OCCCc2c3n(c4c(-c5c(C)nn(C)c5C)c(Cl)ccc24)CCCN(c2cc(CN4CCCC4)cc(C(=O)O)c2)C3=O)cc(C)c1Cl` [I-225, 3-(8-chloro-11-(3-(4-chloro-3,5-dimethylphenoxy)propyl)-1-oxo-7-(1,3,5-trimethyl-1H-pyrazol-4-yl)-4,5-dihydro-1H-[1,4]diazepino[1,2-a]indol-2(3H)-yl)-5-(pyrrolidin-1-ylmethyl)benzoic acid], the Ki was < 50 nM.
The value for `Cc1cc(OCCCc2c3n(c4c(-c5c(C)nn(C)c5C)c(Cl)ccc24)CCCN(c2cc(CN(C)C)cc(C(=O)O)c2)C3=O)cc(C)c1Cl` [I-226, 3-(8-chloro-11-(3-(4-chloro-3,5-dimethylphenoxy)propyl)-1-oxo-7-(1,3,5-trimethyl-1H-pyrazol-4-yl)-4,5-dihydro-1H-[1,4]diazepino[1,2-a]indol-2(3H)-yl)-5-((dimethylamino)methyl)benzoic acid] was < 50 nM; that for `Cc1cc(OCCCc2c3n(c4c(-c5c(C)nn(C)c5C)c(Cl)ccc24)CCCN(c2cc(CN4CCOCC4)cc(C(=O)O)c2)C3=O)cc(C)c1Cl` [I-227, 3-(8-chloro-11-(3-(4-chloro-3,5-dimethylphenoxy)propyl)-1-oxo-7-(1,3,5-trimethyl-1H-pyrazol-4-yl)-4,5-dihydro-1H-[1,4]diazepino[1,2-a]indol-2(3H)-yl)-5-(morpholinomethyl)benzoic acid] was < 50 nM; that for `Cc1cc(OCCCc2c3n(c4c(-c5c(C)nn(C)c5C)c(Cl)ccc24)CCCN(c2cc(CN4CCN(C)CC4)cc(C(=O)O)c2)C3=O)cc(C)c1Cl` [I-228, 3-(8-chloro-11-(3-(4-chloro-3,5-dimethylphenoxy)propyl)-1-oxo-7-(1,3,5-trimethyl-1H-pyrazol-4-yl)-4,5-dihydro-1H-[1,4]diazepino[1,2-a]indol-2(3H)-yl)-5-((4-methylpiperazin-1-yl)methyl)benzoic acid] was < 50 nM.
Take `Cc1cc(OCCCc2c3n(c4c(-c5c(C)nn(C)c5C)c(Cl)ccc24)CCCN(c2cc(Cn4ccnc4)cc(C(=O)O)c2)C3=O)cc(C)c1Cl` [I-229, 3-((1H-imidazol-1-yl)methyl)-5-(8-chloro-11-(3-(4-chloro-3,5-dimethylphenoxy)propyl)-1-oxo-7-(1,3,5-trimethyl-1H-pyrazol-4-yl)-4,5-dihydro-1H-[1,4]diazepino[1,2-a]indol-2(3H)-yl)benzoic acid]: the inhibition constant Ki is < 50 nM.
The value for `Cc1cc(OCCCc2c3n(c4c(-c5c(C)nn(C)c5C)c(Cl)ccc24)CCCN(c2cc(C(=O)O)cc(Cl)n2)C3=O)cc(C)c1Cl` [I-230, 2-chloro-6-(8-chloro-11-(3-(4-chloro-3,5-dimethylphenoxy)propyl)-1-oxo-7-(1,3,5-trimethyl-1H-pyrazol-4-yl)-4,5-dihydro-1H-[1,4]diazepino[1,2-a]indol-2(3H)-yl)isonicotinic acid] was < 50 nM; that for `Cc1cc(OCCCc2c3n(c4c(-c5c(C)nn(C)c5C)c(Cl)ccc24)CCCN(c2cc(C(=O)O)cc(-c4ccncc4)c2)C3=O)cc(C)c1Cl` [I-231, 3-(8-chloro-11-(3-(4-chloro-3,5-dimethylphenoxy)propyl)-1-oxo-7-(1,3,5-trimethyl-1H-pyrazol-4-yl)-4,5-dihydro-1H-[1,4]diazepino[1,2-a]indol-2(3H)-yl)-5-(pyridin-4-yl)benzoic acid] was < 50 nM; that for `Cc1cc(OCCCc2c3n(c4c(-c5c(C)nn(C)c5C)c(Cl)ccc24)CCCN(c2cc(C(=O)O)cc(-c4cccnc4C)c2)C3=O)cc(C)c1Cl` [I-232, 3-(8-chloro-11-(3-(4-chloro-3,5-dimethylphenoxy)propyl)-1-oxo-7-(1,3,5-trimethyl-1H-pyrazol-4-yl)-4,5-dihydro-1H-[1,4]diazepino[1,2-a]indol-2(3H)-yl)-5-(2-methylpyridin-3-yl)benzoic acid] was < 50 nM.
With `Cc1cnccc1-c1cc(C(=O)O)cc(N2CCCn3c(c(CCCOc4cc(C)c(Cl)c(C)c4)c4ccc(Cl)c(-c5c(C)nn(C)c5C)c43)C2=O)c1` [I-233, 3-(8-chloro-11-(3-(4-chloro-3,5-dimethylphenoxy)propyl)-1-oxo-7-(1,3,5-trimethyl-1H-pyrazol-4-yl)-4,5-dihydro-1H-[1,4]diazepino[1,2-a]indol-2(3H)-yl)-5-(3-methylpyridin-4-yl)benzoic acid] the figure was < 50 nM; with `Cc1ccncc1-c1cc(C(=O)O)cc(N2CCCn3c(c(CCCOc4cc(C)c(Cl)c(C)c4)c4ccc(Cl)c(-c5c(C)nn(C)c5C)c43)C2=O)c1` [I-234, 3-(8-chloro-11-(3-(4-chloro-3,5-dimethylphenoxy)propyl)-1-oxo-7-(1,3,5-trimethyl-1H-pyrazol-4-yl)-4,5-dihydro-1H-[1,4]diazepino[1,2-a]indol-2(3H)-yl)-5-(4-methylpyridin-3-yl)benzoic acid], < 50 nM.
The value for `Cc1cc(OCCCc2c3n(c4c(-c5c(C)nn(C)c5C)c(Cl)ccc24)CCCN(c2cc(C(=O)O)cc(-c4cccn4C)c2)C3=O)cc(C)c1Cl` [I-235, 3-(8-chloro-11-(3-(4-chloro-3,5-dimethylphenoxy)propyl)-1-oxo-7-(1,3,5-trimethyl-1H-pyrazol-4-yl)-4,5-dihydro-1H-[1,4]diazepino[1,2-a]indol-2(3H)-yl)-5-(1-methyl-1H-pyrrol-2-yl)benzoic acid] was < 50 nM; that for `Cc1cc(OCCCc2c3n(c4c(-c5c(C)nn(C)c5C)c(Cl)ccc24)CCCN(c2ccc(CC(=O)O)cc2)C3=O)cc(C)c1Cl` [I-237, 2-(4-(8-chloro-11-(3-(4-chloro-3,5-dimethylphenoxy)propyl)-1-oxo-7-(1,3,5-trimethyl-1H-pyrazol-4-yl)-4,5-dihydro-H-[1,4]diazepino[1,2-a]indol-2(3H)-yl)phenyl)acetic acid] was < 50 nM; that for `Cc1cc(OCCCc2c(C(=O)Nc3cc(C(=O)O)c4cc[nH]c4c3)[nH]c3c(-c4c(C)nn(C)c4C)c(Cl)ccc23)cc(C)c1Cl` [I-238, 6-(6-chloro-3-(3-(4-chloro-3,5-dimethylphenoxy)propyl)-7-(1,3,5-trimethyl-1H-pyrazol-4-yl)-1H-indole-2-carboxamido)-1H-indole-4-carboxylic acid] was < 50 nM.
`Cc1cc(OCCCc2c3n(c4c(-c5c(C)nn(C)c5C)c(Cl)ccc24)CCCN(c2cc(C(=O)O)c4ccn(Cc5cccnc5)c4c2)C3=O)cc(C)c1Cl` [I-241, 6-(8-chloro-11-(3-(4-chloro-3,5-dimethylphenoxy)propyl)-1-oxo-7-(1,3,5-trimethyl-1H-pyrazol-4-yl)-4,5-dihydro-1H-[1,4]diazepino[1,2-a]indol-2(3H)-yl)-1-(pyridin-3-ylmethyl)-1H-indole-4-carboxylic acid]: the inhibition constant Ki is < 50 nM.

The term Ki denotes the equilibrium dissociation constant of an inhibitor or competing ligand from its target.
